Measurements taken from US20220402914A1, “Tryptoline-Based Benzothiazoles and their use as Antibiotics and Antibiotic Resistance-Modifying Agents” (The Regents of the University of Colorado, a body corporate, priority 2019, published 2022).
Values after ≈ are worked out from the molar mass of the structure shown. Structures can show the parent of a compound that is named as a salt. Where two headings read alike, the source gives them in different places.

Key:
MRSA ATCC BAA-44 [1] = assay: Minimal inhibitory concentration (MIC), standard broth microdilution; format: cell-based, Staphylococcus aureus; conditions: MRSA BAA-44 strain
Procedure: (§1) RMA activity of the analogues was tested by assessing their abilities to sensitize MRSA to the antibiotic cefazolin (a first-generation cephalosporin). The well characterized strain MRSA ATCC BAA-44 was tested as previously described. […] The minimal inhibitory concentration (MIC), or the lowest concentration at which S. aureus is considered susceptible to an antibacterial, was determined by the standard broth microdilution method detailed in the CLSI handbook. RMA activity was compared by the ratio of MIC/MRC. The half growth inhibitory concentration (GI50) of each analogue against HeLa cells was determined as previously described. […] The luminescence of each sample was recorded in an Envision Multilabel Plate Reader (Perkin Elmer). Results of MICs and MRCs were confirmed by testing in triplicate. The GI50 assay was performed in duplicate.

B. subtilis NR-607 = assay: MIC, scope of antibacterial activity; format: cell-based; conditions: Bacillus subtilis, NR607
Procedure: as §1
(§2) Furthermore, we explored the scope of the antibacterial activity of 12g in a panel of MRSA and MSSA strains including BAA-44 (MIC=1 μg/mL), MRSA-252 (MIC=2 μg/mL), B. subtilis NR-607 (MIC=2 μg/mL), E. faecium HM-460 (MIC=4 μg/mL), E. faecium 28977 (MIC=2 μg/mL) and MSSA (MIC=0.5 μg/mL).

E. faecium HM-460 = assay: MIC, scope of antibacterial activity; format: cell-based; conditions: Enterococcus faecium, HM460
Procedure: as §1, §2

E. faecium 28977 = assay: MIC, scope of antibacterial activity; format: cell-based; conditions: Enterococcus faecium
Procedure: as §1, §2

MRSA-252 = assay: MIC, scope of antibacterial activity; format: cell-based, S. aureus; conditions: Staphylococcus aureus
Procedure: as §1, §2

MSSA = assay: MIC, scope of antibacterial activity; format: cell-based, S. aureus; conditions: Staphylococcus aureus
Procedure: as §1, §2

[2] = GI50 against HeLa cells, Cell Titer Glo viability assay; format: cell-based, human; conditions: human, HeLa cells, 24 h
Procedure: as §1

multiple MRSA strains = assay: RMA activity in multiple MRSA strains with cephalosporins; format: cell-based, S. aureus
Procedure: as §1
We next explored the scope of RMA activity of 4ad in different MRSA strains, including MRSA BAA-1683, MRSA BAA-1764, MRSA NR-46411, NRS-384 and NRS-100. These strains were selected because of their diverse geographical origins, genetic background, and resistance profile. We also tested RMA activity in combination with another commercial antibiotic, cefuroxime, which is a second-generation cephalosporin. MRCs in the presence of cefuroxime were determined using the same method as those for cefazolin.

MRSA ATCC BAA-44 [3] = assay: Minimum re-sensitizing concentration (MRC) in the presence of cefazolin; format: cell-based, Staphylococcus aureus; conditions: MRSA BAA-44, cefazolin
Procedure: as §1

HeLa cells = assay: GI50 against HeLa cells, Cell Titer Glo viability assay; format: cell-based, human; conditions: 24 h
Procedure: as §1

Row | SMILES | MIC (MRSA ATCC BAA-44 [1]; hydrochloride) | MIC (MRSA ATCC BAA-44 [1]; Staphylococcus aureus) | MIC (B. subtilis NR-607) | MIC (E. faecium HM-460) | MIC (E. faecium 28977) | MIC (MRSA-252) | MIC (MSSA) | GI50 at 24 h [2] | potentiation of antibiotics (in words) (multiple MRSA strains; five MRSA strains, cefazolin and cefuroxime) | concentration that re-sensitizes multiple MRSA strains to cephalosporins (multiple MRSA strains; multiple MRSA strains, cephalosporins) | RMA activity (in words) (MRSA ATCC BAA-44 [3]) | MIC (MRSA ATCC BAA-44 [1]) | GI50 (HeLa cells) | MIC (MRSA ATCC BAA-44 [1]; Staphylococcus aureus, read-out: MIC)
1 | N=C(N)NCC1CN(c2nc3ccc(Cl)cc3s2)Cc2[nH]c3ccc(Cl)cc3c21 (racemic) [Compound 12g, 1-((6-chloro-2-(6-chlorobenzo[d]thiazol-2-yl)-2,3,4,9-tetrahydro-1H-pyrido[3,4-b]indol-4-yl)methyl)guanidine hydrochloride] | 1 µg/mL | 2 µg/mL | 2 µg/mL | 4 µg/mL | 2 µg/mL | 2 µg/mL | 0.5 µg/mL | 14.1 µg/mL | – | – | – | – | – | –
2 | Nc1cc(Cl)c2nc(N3CCc4c([nH]c5ccc(Cl)cc45)C3)sc2c1 [Compound 4ad, 4-Chloro-2-(6-chloro-1,3,4,9-tetrahydro-2H-pyrido[3,4-b]indol-2-yl)-1,3-benzothiazol-6-amine] | – | – | – | – | – | – | – | – | potentiates both antibiotic cefazolin and cefuroxime | 2 µg/mL | good RMA activities | >32 µg/mL | > 100 µg/mL | –
3 | Clc1ccc2[nH]c3c(c2c1)CCN(c1nc2c(Cl)cccc2s1)C3 [Compound 4w, 6-Chloro-2-(4-chloro-1,3-benzothiazol-2-yl)-2,3,4,9-tetrahydro-1H-pyrido[3,4-b]indole] | – | – | – | – | – | – | – | – | – | – | maintained similar RMA activity | – | 27.7 µg/mL (≈ 74 µM) | > 64 µg/mL
